Measured values: PMC6385358, “Discovery of ((1,2,4-oxadiazol-5-yl)pyrrolidin-3-yl)ureidyl derivatives as selective non-steroidal agonists of the G-protein coupled bile acid receptor-1” (Scientific Reports, 2019)

Target: T1, GPBAR1 (Homo sapiens, UniProt Q8TDU6)
T1 construct: expressed in transfected cells; host or cells: HEK-293T
T1 sequence (Q8TDU6 1-330): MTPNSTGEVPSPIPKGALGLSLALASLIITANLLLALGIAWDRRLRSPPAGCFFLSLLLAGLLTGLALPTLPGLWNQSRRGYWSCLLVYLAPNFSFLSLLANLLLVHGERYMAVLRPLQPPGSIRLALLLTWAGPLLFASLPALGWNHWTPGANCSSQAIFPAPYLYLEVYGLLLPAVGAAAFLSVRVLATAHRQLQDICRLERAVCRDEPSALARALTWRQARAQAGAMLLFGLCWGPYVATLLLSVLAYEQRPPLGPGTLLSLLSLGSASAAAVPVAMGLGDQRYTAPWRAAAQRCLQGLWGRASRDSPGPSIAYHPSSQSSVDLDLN
Test: Luciferase reporter (CRE) transactivation assay in HEK-293T cells transfected with GPBAR1
Format: cell-based
Conditions: for Emax at 10 µM: HEK-293T, maximal transactivation of CRE, compound 10 μM vs TLCA 10 μM = 100%, read-out: Efficacy (% vs TLCA)
Method: The activity of compounds 1–14 on GPBAR1 was evaluated in a luciferase reporter assay using HEK-293T cells transfected with GPBAR1. The efficacy of tested compounds (Table 1) was measured using taurolithocholic acid (TLCA) as GPBAR1 reference compound[10],[11]. Each compound was tested at the concentration of 10 μM and transactivation activity of TLCA on a cAMP responsive element (CRE) (i.e. TGR5/GPBAR1) was considered equal to 100%. […] Thus, 9 and 10 (Table 1) turned out to be the most promising derivatives considering their low EC50 values and high activity efficacy. To further characterize the pharmacological properties of these compounds, we expanded their in vitro profile to common off-targets for bile acid receptor ligands.
Transactivation assay on HEK-293T cells was performed to investigate GPBAR1 activation, using compound 1–14 and TLCA as positive control at 10 µM, as previously reported.
Supplementary Figure S4. HEK-293T cells were transiently transfected with GPBAR1 and a reporter gene containing a cAMP responsive element in front of the luciferase gene. Cells were stimulated with compounds A-L (10 μM). TLCA (10 μM) was used as positive control. Luciferase activity served as a measure of the rise in intracellular cAMP following activation of GPBAR1. In all panels, results are expressed as mean ± standard error. ^∗p < 0.05 versus not treated cells (NT).

Emax at 10 µM [%]	GPBAR1 agonist activity in transactivation assay (10 μM, compared to TLCA)	Structure (SMILES)
58 to 121	–	O[C@H]1CN[C@H](c2nc(-c3ccccc3)no2)C1 [Compound 1]
58 to 121	–	[N-]=[N+]=N[C@@H]1CN[C@H](c2nc(-c3ccccc3)no2)C1 [Compound 2]
58 to 121	–	N[C@@H]1CN[C@H](c2nc(-c3ccccc3)no2)C1 [Compound 3]
58 to 121	moderate GPBAR1 agonist activity	O=C(Nc1ccc(C(F)(F)F)cc1)N[C@@H]1CN[C@H](c2nc(-c3ccccc3)no2)C1 [Compound 4]
58 to 121	–	Cc1ccc(NC(=O)N[C@@H]2CN[C@H](c3nc(-c4ccccc4)no3)C2)cc1 [Compound 6]
58 to 121	–	O=C(NCc1ccccc1)N[C@@H]1CN[C@H](c2nc(-c3ccccc3)no2)C1 [Compound 11]
